These results are taken from patent publication US10501421B1, “Substituted benzimidazoles as modulators of Ras signaling” (VANDERBILT UNIVERSITY, priority 2017, dated 2019).

For one assay, the target named is T1, Son of Sevenless (SOS) (Homo sapiens, UniProt Q07889).
T1 sequence (Q07889 564-1049 limits assumed): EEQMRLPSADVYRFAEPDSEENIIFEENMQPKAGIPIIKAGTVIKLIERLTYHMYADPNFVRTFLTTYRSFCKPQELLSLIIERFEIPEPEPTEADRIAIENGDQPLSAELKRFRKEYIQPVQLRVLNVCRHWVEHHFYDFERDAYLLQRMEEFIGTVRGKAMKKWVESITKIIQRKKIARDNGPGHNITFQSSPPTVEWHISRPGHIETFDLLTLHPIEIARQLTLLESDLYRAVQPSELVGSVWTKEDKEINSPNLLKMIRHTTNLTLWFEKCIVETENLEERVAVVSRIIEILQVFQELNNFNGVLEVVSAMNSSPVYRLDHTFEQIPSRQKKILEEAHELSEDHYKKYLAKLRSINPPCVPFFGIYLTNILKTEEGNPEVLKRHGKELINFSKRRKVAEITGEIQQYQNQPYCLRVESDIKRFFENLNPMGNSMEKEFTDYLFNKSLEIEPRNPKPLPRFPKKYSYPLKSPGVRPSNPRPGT
The assay is described as follows: Binding to SOS, fluorescence polarization anisotropy (FPA) probe displacement. The conditions noted are these: displacement of FITC-conjugated probe (Example 285), affinity calculated from IC50. The method, then: Compounds of the present invention were tested for their ability to bind to the Ras guanine exchange factor (GEF) Son of Sevenless (SOS). Binding to SOS was measured using a Fluorescence polarization anisotropy (FPA) assay that assesses the ability of a test compound to displace a fluorescent FITC-conjugated compound (Example 285). Briefly, the labeled probe compound is incubated with SOS in buffer. Changes in anisotropy indicative of displacement of the labeled probe for a test compound are assessed over a dose range of test compound. Data was analyzed by plotting fluorescence anisotropy values as a function of compound concentration. IC50 values were determined using a four-parameter dose-response (variable slope) and binding affinities were calculated from this IC50 value. This assay is performed in a method analogous to the assay disclosed in: Burns, M. C.; Sun, Q.; Daniels, R. N.; Camper, D. V.; Kennedy, J. P.; Phan, J.; Olejniczak, E. O.; Lee, T.; Waterson, A. G.; Rossanese, O. W.; Fesik, S. W. “Approach for targeting Ras with small molecules that activate SOS-mediated nucleotide exchange” Proc. Natl. Acad. Sci. 2014; 11(9): 3401-3406. PMCID: PMC3948241.

Assay [1] concerns the target Ras GEF SOS (Son of Sevenless) (Homo sapiens, UniProt Q07889). The assay is described as follows: SOS-mediated nucleotide exchange on Ras (BODIPY-GDP fluorescence). Type of assay: biochemical. Particulars: SOS-mediated exchange of BODIPY-GDP for GTP on Ras. The method, then: Compounds of the present invention were tested for their ability to modify the rate at which Ras exchanges a labeled nucleotide guanosine diphosphate (GDP) analog for guanosine triphosphate (GTP). Briefly, test compounds, then GTP and the Ras GEF SOS (Son of Sevenless) are added to a buffered solution containing Ras protein loaded with BODIPY-GDP. Changes in fluoresence indicating exchange of the labeled GDP for GTP are monitored over time. Raw fluorescence data was fit to a single exponential decay function and derived rates were plotted as mean values. EC50 values were calculated by plotting mean derived rates as a function of compound concentration and fit using a four-parameter dose-response curve. This assay is performed in a method analogous to the assay disclosed in: Burns, M. C.; Sun, Q.; Daniels, R. N.; Camper, D. V.; Kennedy, J. P.; Phan, J.; Olejniczak, E. O.; Lee, T.; Waterson, A. G.; Rossanese, O. W.; Fesik, S. W. “Approach for targeting Ras with small molecules that activate SOS-mediated nucleotide exchange” Proc. Natl. Acad. Sci. 2014; 11(9): 3401-3406. PMCID: PMC3948241.

Structures can show the parent of a compound that is named as a salt. Bounds are passed on as bounds.

Ras GEF SOS (Son of Sevenless), sequence (P01112 1-166 partner limits assumed, one chain of several): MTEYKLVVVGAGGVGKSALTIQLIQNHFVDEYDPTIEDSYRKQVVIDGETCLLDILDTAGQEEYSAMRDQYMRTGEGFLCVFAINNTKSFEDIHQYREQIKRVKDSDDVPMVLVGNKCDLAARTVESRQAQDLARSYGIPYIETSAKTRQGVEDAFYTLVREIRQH

In the case of `N[C@@H](Cc1ccccc1)c1cc(Cl)cc2c1nc(N1CCNCC1)n2Cc1ccc(F)c(Cl)c1` [Example 166, (S)-1-(6-chloro-1-(3-chloro-4-fluorobenzyl)-2-(piperazin-1-yl)-1H-benzo[d]imidazol-4-yl)-2-phenylethan-1-amine trifluoroacetate], on Son of Sevenless (SOS), the Ki – broadly, the dissociation constant of the complex between target and ligand, obtained from inhibition or displacement – was 500 to 1000 nM. For the molecule `COC(=O)c1cnn(CC(C)C)c1-c1cc(C)cc2c1nc(N1CCNCC1)n2Cc1ccc(F)c(Cl)c1` [Example 179, methyl 5-(1-(3-chloro-4-fluorobenzyl)-6-methyl-2-(piperazin-1-yl)-1H-benzo[d]imidazol-4-yl)-1-isobutyl-1H-pyrazole-4-carboxylate], the Ki on Son of Sevenless (SOS) is 500 to 1000 nM. Turning to `CCCNC(=O)c1cnn(CC(C)C)c1-c1cc(C)cc2c1nc(N1CCNCC1)n2Cc1cc(C)c(F)c(C)c1` [Example 181, 5-(1-(4-fluoro-3,5-dimethylbenzyl)-6-methyl-2-(piperazin-1-yl)-1H-benzo[d]imidazol-4-yl)-1-isobutyl-N-propyl-1H-pyrazole-4-carboxamide trifluoroacetate], the Ki on Son of Sevenless (SOS) was 500 to 1000 nM.

Turning to `Cc1cc(N2CCN(C(C)C)CC2)c2nc(N3CCNCC3)n(Cc3cc(C)c(F)c(C)c3)c2c1` [Example 194, 1-(4-fluoro-3,5-dimethylbenzyl)-4-(4-isopropylpiperazin-1-yl)-6-methyl-2-(piperazin-1-yl)-1H-benzo[d]imidazole trifluoroacetate], the Ki at Son of Sevenless (SOS) was 500 to 1000 nM. For `Cc1cc(OCCNCCO)c2nc(N3CCNCC3)n(Cc3cc(C)c(F)c(C)c3)c2c1` [Example 199, 2-((2-((1-(4-fluoro-3,5-dimethylbenzyl)-6-methyl-2-(piperazin-1-yl)-1H-benzo[d]imidazol-4-yl)oxy)ethyl)amino)ethan-1-ol], the Ki at Son of Sevenless (SOS) is 500 to 1000 nM. Regarding `Cc1cc(O[C@H]2CCNC2)c2nc(N3CCNCC3)n(Cc3cc(C)c(F)c(C)c3)c2c1` [Example 200, (S)-1-(4-fluoro-3,5-dimethylbenzyl)-6-methyl-2-(piperazin-1-yl)-4-(pyrrolidin-3-yloxy)-1H-benzo[d]imidazole], the Ki at Son of Sevenless (SOS) is above 5000 nM.

For `Cc1cc(Cn2c(NC3CCNC3)nc3c(-c4ccccc4)nccc32)ccc1F` (centres unmarked) [Example 222, 1-(4-fluoro-3-methylbenzyl)-4-phenyl-N-(pyrrolidin-3-yl)-1H-imidazo[4,5-c]pyridin-2-amine], the EC50 – broadly, the concentration giving half of the maximal effect – in assay [1] fell in the range of 5 to 30 µM. Still for that read-out and setting: then `Cc1cc2c(nc(N3CCNCC3)n2Cc2ccc(F)c(C)c2)c(CN2CCCC2)n1` [Example 236, 1-(4-fluoro-3-methylbenzyl)-6-methyl-2-(piperazin-1-yl)-4-(pyrrolidin-1-ylmethyl)-1H-imidazo[4,5-c]pyridine], with 30 to 100 µM. The same measure, in the same setting: then `Cc1cc2c(nc(N3CCNCC3)n2Cc2ccc(F)c(C)c2)c(CN2CCOCC2)n1` [Example 237, 4-((1-(4-fluoro-3-methylbenzyl)-6-methyl-2-(piperazin-1-yl)-1H-imidazo[4,5-c]pyridin-4-yl)methyl)morpholine], with 30 to 100 µM; and `Cc1cc2c(nc(N3CCNCC3)n2Cc2ccc(F)c(C)c2)c(CN2CCC(O)CC2)n1` [Example 238, 1-((1-(4-fluoro-3-methylbenzyl)-6-methyl-2-(piperazin-1-yl)-1H-imidazo[4,5-c]pyridin-4-yl)methyl)piperidin-4-ol], with 30 to 100 µM; and `C=Cc1nc(C)cc2c1nc(N1CCNCC1)n2Cc1ccc(F)c(C)c1` [Example 239, 1-(4-fluoro-3-methylbenzyl)-6-methyl-2-(piperazin-1-yl)-4-vinyl-1H-imidazo[4,5-c]pyridine], with 30 to 100 µM. As to `Cc1cnc2nc(N3CCNCC3)n(Cc3ccc(F)c(Cl)c3)c2c1` [Example 242, 1-(3-chloro-4-fluorobenzyl)-6-methyl-2-(piperazin-1-yl)-1H-imidazo[4,5-b]pyridine], the EC50 in assay [1] lay in the range of 1 to 5 µM. As to `Cc1cnc2ncn(Cc3ccc(F)c(Cl)c3)c2c1` [Example 243, 1-(3-chloro-4-fluorobenzyl)-6-methyl-1H-imidazo[4,5-b]pyridine], the EC50 in assay [1] lay in the range of 30 to 100 µM. `Cc1cnc2nc(N3CCNCC3)n(Cc3ccc(F)c(C)c3)c2c1` [Example 244, 1-(4-fluoro-3-methylbenzyl)-6-methyl-2-(piperazin-1-yl)-1H-imidazo[4,5-b]pyridine] returned an EC50 in assay [1] of 5 to 30 µM. Molecule `Fc1ccc(Cn2c(N3CCNCC3)nc3ncccc32)cc1` [Example 249, 1-(4-fluorobenzyl)-2-(piperazin-1-yl)-1H-imidazo[4,5-b]pyridine] returned an EC50 in assay [1] of 5 to 30 µM. Molecule `NCCNc1nc2ncccc2n1Cc1ccc(F)cc1` [Example 250, N^1-(1-(4-fluorobenzyl)-1H-imidazo[4,5-b]pyridin-2-yl)ethane-1,2-diamine] yielded an EC50 in assay [1] of 5 to 30 µM. In turn, `Fc1ccc(Cn2cnc3ncccc32)cc1` [Example 253, 1-(4-fluorobenzyl)-1H-imidazo[4,5-b]pyridine] showed an EC50 in assay [1] of 30 to 100 µM. The molecule `Clc1ccc(Cn2c(Cl)nc3ncccc32)cc1` [Example 254, 2-chloro-1-(4-chlorobenzyl)-1H-imidazo[4,5-b]pyridine] yielded an EC50 in assay [1] of 30 to 100 µM. In assay [1], `Clc1ccc(Cn2cnc3ncccc32)cc1` [Example 255, 1-(4-chlorobenzyl)-1H-imidazo[4,5-b]pyridine] yielded a concentration giving a half-maximal response (EC50) of 30 to 100 µM.

In assay [1], `Cc1ccc2c(n1)nc(N1CCNCC1)n2Cc1ccc(F)c(Cl)c1` [Example 256, 1-(3-chloro-4-fluorobenzyl)-5-methyl-2-(piperazin-1-yl)-1H-imidazo[4,5-b]pyridine] registered an EC50 of 5 to 30 µM. `Cc1ccc2c(n1)nc(NCCN)n2Cc1ccc(F)c(Cl)c1` [Example 257, N^1-(1-(3-chloro-4-fluorobenzyl)-5-methyl-1H-imidazo[4,5-b]pyridin-2-yl)ethane-1,2-diamine] came in with an EC50 in assay [1] of 5 to 30 µM.

As to `Oc1ccc(-c2cccc3c2nc(N2CCNCC2)n3Cc2ccc(F)c(Cl)c2)cc1` [Example 264, 4-[1-[(3-chloro-4-fluorophenyl)methyl]-2-piperazin-1-ylbenzimidazol-4-yl]phenol], the EC50 in assay [1] was in the range of 5 to 30 µM. `Cc1cc2nc(NC3CCNCC3)n(Cc3ccc(F)c(Cl)c3)c2cc1C` [Example 269, 1-[(3-chloro-4-fluorophenyl)methyl]-5,6-dimethyl-N-piperidin-4-ylbenzimidazol-2-amine] showed an EC50 in assay [1] of 30 to 100 µM.

In assay [1], `Cc1ccc2nc([C@@H](N)C(C)C)n(Cc3cccc(Cl)c3)c2c1` [Example 270, (S)-1-(1-(3-chlorobenzyl)-6-methyl-1H-benzo[d]imidazol-2-yl)-2-methylpropan-1-amine] yielded an EC50 of 30 to 100 µM. Molecule `Cc1ccc2nc([C@H](N)CO)n(Cc3cccc(Cl)c3)c2c1` [Example 271, (2S)-2-amino-2-[1-[(3-chlorophenyl)methyl]-6-methylbenzimidazol-2-yl]ethanol] showed an EC50 in assay [1] of 30 to 100 µM. `Cc1ccc2nc([C@@H](N)Cc3ccc(O)cc3)n(Cc3ccc(F)cc3)c2c1` [Example 272, 4-[(2S)-2-amino-2-[1-[(4-fluorophenyl)methyl]-6-methylbenzimidazol-2-yl]ethyl]phenol] registered an EC50 in assay [1] of 30 to 100 µM. The molecule `NCc1ccc2c(c1)nc(N1CCNCC1)n2Cc1ccc(F)c(Cl)c1` [Example 281, [1-[(3-chloro-4-fluorophenyl)methyl]-2-piperazin-1-ylbenzimidazol-5-yl]methanamine] gave a concentration giving a half-maximal response (EC50) in assay [1] of 5 to 30 µM. `Cc1cc2nc(N3CCC(N)C3)n(Cc3ccc(F)c(Cl)c3)c2cc1C` (centres unmarked) [Example 289, 1-(1-(3-chloro-4-fluorobenzyl)-5,6-dimethyl-1H-benzo[d]imidazol-2-yl)pyrrolidin-3-amine]: the EC50 in assay [1] fell in the range of 1 to 5 µM.

In assay [1], `Cc1cc(Cn2c(NCCN)nc3c(O)cccc32)ccc1F` [Example 295, 2-((2-aminoethyl)amino)-1-(4-fluoro-3-methylbenzyl)-1H-benzo[d]imidazol-4-ol] returned an EC50 of 5 to 30 µM.
